Test results reported in BindingDB's records for patent US10550100 (GALAPAGOS NV, 2020).

Biological target: T1, A disintegrin and metalloproteinase with thrombospondin motifs 6 (Human, UniProt Q9UKP5)
T1 sequence (Q9UKP5 whole entry): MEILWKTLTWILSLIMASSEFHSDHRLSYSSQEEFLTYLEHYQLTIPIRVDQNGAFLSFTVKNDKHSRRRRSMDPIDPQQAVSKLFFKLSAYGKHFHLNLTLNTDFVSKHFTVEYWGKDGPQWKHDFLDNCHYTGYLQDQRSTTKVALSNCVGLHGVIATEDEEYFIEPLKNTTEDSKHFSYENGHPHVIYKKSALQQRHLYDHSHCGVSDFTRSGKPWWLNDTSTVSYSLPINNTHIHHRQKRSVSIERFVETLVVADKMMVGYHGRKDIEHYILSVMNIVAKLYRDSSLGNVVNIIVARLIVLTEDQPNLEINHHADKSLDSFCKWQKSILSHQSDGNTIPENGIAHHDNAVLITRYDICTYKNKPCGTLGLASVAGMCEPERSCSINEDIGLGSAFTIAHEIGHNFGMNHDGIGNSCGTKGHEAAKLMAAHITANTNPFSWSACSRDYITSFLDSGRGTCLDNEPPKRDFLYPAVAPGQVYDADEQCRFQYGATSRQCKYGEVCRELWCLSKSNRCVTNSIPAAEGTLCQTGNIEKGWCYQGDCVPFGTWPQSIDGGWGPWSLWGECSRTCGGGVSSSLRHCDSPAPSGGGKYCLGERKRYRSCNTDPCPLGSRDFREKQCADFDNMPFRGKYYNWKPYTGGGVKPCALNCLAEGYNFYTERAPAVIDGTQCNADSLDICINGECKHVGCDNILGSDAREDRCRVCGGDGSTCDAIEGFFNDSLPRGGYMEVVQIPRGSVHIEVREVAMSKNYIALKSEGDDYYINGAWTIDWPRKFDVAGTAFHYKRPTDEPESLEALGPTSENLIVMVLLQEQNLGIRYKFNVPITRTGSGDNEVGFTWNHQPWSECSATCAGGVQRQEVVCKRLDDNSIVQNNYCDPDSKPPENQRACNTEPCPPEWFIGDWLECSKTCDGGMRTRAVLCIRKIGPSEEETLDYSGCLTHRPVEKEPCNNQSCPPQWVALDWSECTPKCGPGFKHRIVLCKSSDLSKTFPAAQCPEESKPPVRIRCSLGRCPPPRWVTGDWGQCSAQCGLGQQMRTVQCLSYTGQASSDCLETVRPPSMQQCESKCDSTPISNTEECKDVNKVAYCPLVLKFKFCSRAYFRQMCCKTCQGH
Test: hADAMTS-6 Assay
Procedure: Without ADAMTS6, the emission of the probe is quenched. If the substrate is cleaved by ADAMTS6, the emission of the probe is not quenched anymore. […] The reaction is started by addition of 10 μL of 1 μM 520 MMP FRET Substrate XII (final concentration, diluted in same buffer as described above) and the mixture is incubated at 37° C. for 2 h. […] After this incubation, cleavage of the substrate is measured using the Envision (Perkin Elmer, exc485/em530).

In the case of `COc1c(Cl)cc(Cl)cc1C1CCN(C(=O)CC[C@H]2NC(=O)NC2=O)CC1` [US10550100, Compound 70], the IC50 is reported as > 0.1 µM.
